{"source": "patent US8163775B2", "about": "“Allosteric modulators of metabotropic glutamate receptors” (Addex Pharma SA, priority 2003, dated 2012)"}
{"units": {"melting point": "°C"}}
{"smiles": "O=C(c1ccc(F)cc1)N1CCCC(c2nnc(-c3ccc(F)cc3)[nH]2)C1", "note": "(stereo not shown) [Example 1, (4-Fluoro-phenyl)-{3-[5-(4-fluoro-phenyl)-4H-[1,2,4]triazol-3-yl]-piperidin-1-yl}-methanone]", "melting point": 95}
{"smiles": "COc1ccc(-c2noc(C3CCCN(C(=O)c4ccccc4)C3)n2)cc1", "note": "(stereo not shown) [Example 3, {3-[3-(4-Methoxy-phenyl)-[1,2,4]oxadiazol-5-yl]-piperidin-1-yl}-phenyl-methanone]", "melting point": 121}
{"smiles": "O=C(c1ccccc1)N1CCCC(c2nc(-c3ccc(F)cc3)no2)C1", "note": "(stereo not shown) [Example 5, {3-[3-(4-Fluoro-phenyl)-[1,2,4]oxadiazol-5-yl]-piperidin-1-yl}-phenyl-methanone]", "melting point": "82 to 83"}
{"smiles": "O=C(c1cccc(F)c1)N1CCCC(c2nc(-c3ccc(F)cc3)no2)C1", "note": "(stereo not shown) [Example 6, (3-Fluoro-phenyl)-{3-[3-(4-fluoro-phenyl)-[1,2,4]oxadiazol-5-yl]-piperidin-1-yl}-methanone]", "melting point": "139 to 140"}
{"smiles": "O=C(c1ccc(F)cc1)N1CCCC(c2nc(-c3ccccc3)no2)C1", "note": "(stereo not shown) [Example 7, (4-Fluoro-phenyl)-[3-(3-phenyl-[1,2,4]oxadiazol-5-yl)-piperidin-1-yl]-methanone]", "melting point": "78 to 79"}
{"smiles": "O=C(c1ccc(F)cc1)N1CCCC(c2nc(-c3cccc(F)c3)no2)C1", "note": "(stereo not shown) [Example 10, (4-Fluoro-phenyl)-{3-[3-(3-fluoro-phenyl)-[1,2,4]oxadiazol-5-yl]-piperidin-1-yl}-methanone]", "melting point": "86 to 89"}
{"smiles": "O=C(c1cccs1)N1CCC[C@H](c2nc(-c3ccc(F)cc3)no2)C1", "note": "[Example 13, S-(thiophen-2-yl)-{3-[3-(4-fluoro-phenyl)-[1,2,4]oxadiazol-5-yl]-piperidin-1-yl}-methanone]", "melting point": "82 to 83"}
{"smiles": "Cc1nc(-c2cnccn2)sc1C(=O)N1CCC[C@H](c2nc(-c3ccc(F)cc3)no2)C1", "note": "[Example 14, {(S)-3-[3-(4-Fluoro-phenyl)-[1,2,4]oxadiazol-5-yl]-piperidin-1-yl}-(4-methyl-2-pyrazin-2-yl-thiazol-5-yl)-methanone]", "melting point": "147 to 148"}
{"smiles": "O=C(c1csnn1)N1CCC[C@H](c2nc(-c3ccc(F)cc3)no2)C1", "note": "[Example 18, {(S)-3-[3-(4-Fluoro-phenyl)-[1,2,4]oxadiazol-5-yl]-piperidin-1-yl}-[1,2,3]thiadiazol-4-yl-methanone]", "melting point": "90 to 91"}
{"smiles": "O=C(c1nc2ccccc2s1)N1CCC[C@H](c2nc(-c3ccc(F)cc3)no2)C1", "note": "[Example 19, Benzothiazol-2-yl-{(S)-3-[3-(4-fluoro-phenyl)-[1,2,4]oxadiazol-5-yl]-piperidin-1-yl}-methanone]", "melting point": "130 to 131"}
{"smiles": "Cc1cc(C(=O)N2CCC[C@H](c3nc(-c4ccc(F)cc4)no3)C2)nn1C", "note": "[Example 21, (1,5-Dimethyl-1H-pyrazol-3-yl)-{(S)-3-[3-(4-fluoro-phenyl)-[1,2,4]oxadiazol-5-yl]-piperidin-1-yl}-methanone]", "melting point": "108 to 109"}
{"smiles": "O=C(c1ccc(C(F)(F)F)cc1)N1CCC[C@H](c2nc(-c3ccc(F)cc3)no2)C1", "note": "[Example 22, {(S)-3-[3-(4-Fluoro-phenyl)-[1,2,4]oxadiazol-5-yl]-piperidin-1-yl}-(4-trifluoromethyl-phenyl)-methanone]", "melting point": "109 to 110"}
{"smiles": "N#Cc1ccc(C(=O)N2CCC[C@H](c3nc(-c4ccc(F)cc4)no3)C2)cc1", "note": "[Example 23, 4-{(S)-3-[3-(4-Fluoro-phenyl)-[1,2,4]oxadiazol-5-yl]-piperidine-1-carbonyl}-benzonitrile]", "melting point": "129 to 130"}
{"smiles": "O=C(c1ccno1)N1CCC[C@H](c2nc(-c3ccc(F)cc3)no2)C1", "note": "[Example 24, {(S)-3-[3-(4-Fluoro-phenyl)-[1,2,4]oxadiazol-5-yl]-piperidin-1-yl}-isoxazol-5-yl-methanone]", "melting point": "93 to 94"}
{"smiles": "O=C(c1cc(F)c(F)c(F)c1)N1CCC[C@H](c2nc(-c3ccc(F)cc3)no2)C1", "note": "[Example 26, {(S)-3-[3-(4-Fluoro-phenyl)-[1,2,4]oxadiazol-5-yl]-piperidin-1-yl}-(3,4,5-trifluoro-phenyl)-methanone]", "melting point": "139 to 140"}
{"smiles": "O=C(c1ccc(F)c(Cl)c1)N1CCC[C@H](c2nc(-c3ccc(F)cc3)no2)C1", "note": "[Example 27, (3-Chloro-4-fluoro-phenyl)-{(S)-3-[3-(4-fluoro-phenyl)-[1,2,4]oxadiazol-5-yl]-piperidin-1-yl}-methanone]", "melting point": "123 to 124"}
{"smiles": "Cc1cc(C(=O)N2CCC[C@H](c3nc(-c4ccc(F)cc4)no3)C2)ccc1F", "note": "[Example 30, (4-Fluoro-3-methyl-phenyl)-{(S)-3-[3-(4-fluoro-phenyl)-[1,2,4]oxadiazol-5-yl]-piperidin-1-yl}-methanone]", "melting point": "106 to 107"}
{"smiles": "O=C(c1ccc(-c2ccccn2)s1)N1CCC[C@H](c2nc(-c3ccc(F)cc3)no2)C1", "note": "[Example 31, {(S)-3-[3-(4-Fluoro-phenyl)-1,2,4-oxadiazol-5-yl]-piperidin-1-yl}-(5-pyridin-2-yl-thiophen-2-yl)-methanone]", "melting point": "115 to 117"}
{"smiles": "Cc1ccsc1C(=O)N1CCC[C@H](c2nc(-c3ccc(F)cc3)no2)C1", "note": "[Example 32, {(S)-3-[3-(4-Fluoro-phenyl)-1,2,4-oxadiazol-5-yl]-piperidin-1-yl}-(3-methyl-thiophen-2-yl)-methanone]", "melting point": "90 to 92"}
{"smiles": "Cn1cccc1C(=O)N1CCC[C@H](c2nc(-c3ccc(F)cc3)no2)C1", "note": "[Example 33, {(S)-3-[3-(4-Fluoro-phenyl)-1,2,4-oxadiazol-5-yl]-piperidin-1-yl}-(1-methyl-1H-pyrrol-2-yl)-methanone]", "melting point": "84 to 85"}
{"smiles": "O=C(c1ccc(F)c(F)c1)N1CCC[C@H](c2nc(-c3ccc(F)cc3)no2)C1", "note": "[Example 35, (3,4-Difluoro-phenyl)-{(S)-3-[3-(4-fluoro-phenyl)-[1,2,4]oxadiazol-5-yl]-piperidin-1-yl}-methanone]", "melting point": "120 to 121"}
{"smiles": "O=C(c1ccc2ncsc2c1)N1CCC[C@H](c2nc(-c3ccc(F)cc3)no2)C1", "note": "[Example 36, Benzothiazol-6-yl-{(S)-3-[3-(4-fluoro-phenyl)-1,2,4-oxadiazol-5-yl]-piperidin-1-yl}-methanone]", "melting point": "63 to 64"}
{"smiles": "O=C(c1nccs1)N1CCC[C@H](c2nc(-c3ccc(F)cc3)no2)C1", "note": "[Example 37, {(S)-3-[3-(4-Fluoro-phenyl)-1,2,4-oxadiazol-5-yl]-piperidin-1-yl}-thiazol-2-yl-methanone]", "melting point": "94 to 95"}
{"smiles": "Cc1ncsc1C(=O)N1CCC[C@H](c2nc(-c3ccc(F)cc3)no2)C1", "note": "[Example 38, {(S)-3-[3-(4-Fluoro-phenyl)-1,2,4-oxadiazol-5-yl]-piperidin-1-yl}-(4-methyl-thiazol-5-yl)-methanone]", "melting point": "122 to 124"}
{"smiles": "O=C(c1ccc(N2CCOCC2)nc1)N1CCC[C@H](c2nc(-c3ccc(F)cc3)no2)C1", "note": "[Example 39, {(S)-3-[3-(4-Fluoro-phenyl)-1,2,4-oxadiazol-5-yl]-piperidin-1-yl}-(6-morpholin-4-yl-pyridin-3-yl)-methanone]", "melting point": "112 to 114"}
{"smiles": "O=C(c1ccc2[nH]ccc2c1)N1CCC[C@H](c2nc(-c3ccc(F)cc3)no2)C1", "note": "[Example 40, {(S)-3-[3-(4-Fluoro-phenyl)-1,2,4-oxadiazol-5-yl]-piperidin-1-yl}-(1H-indol-5-yl)-methanone]", "melting point": "191 to 192"}
{"smiles": "O=C(CCc1ccc(F)cc1)N1CCC[C@H](c2nc(-c3ccc(F)cc3)no2)C1", "note": "[Example 42, 3-(4-Fluoro-phenyl)-1-{(S)-3-[3-(4-fluoro-phenyl)-1,2,4-oxadiazol-5-yl]-piperidin-1-yl}-propan-1-one]", "melting point": "83 to 84"}
{"smiles": "O=C(c1ccc2[nH]cnc2c1)N1CCC[C@H](c2nc(-c3ccc(F)cc3)no2)C1", "note": "[Example 45, {(S)-3-[3-(4-Fluoro-phenyl)-1,2,4-oxadiazol-5-yl]-piperidin-1-yl}-benzoimidazol-6-yl-methanone]", "melting point": "110 to 115"}
{"smiles": "O=C(c1ccc(F)cc1)N1CCC[C@H](c2nc(-c3ccncc3)no2)C1", "note": "[Example 48, (4-Fluoro-phenyl)-[(S)-3-(3-pyridin-4-yl-[1,2,4]oxadiazol-5-yl)-piperidin-1-yl]-methanone]", "melting point": "113 to 115"}
{"smiles": "O=C(c1ccc(F)cc1)N1CCC[C@H](c2nc(-c3ccc4ccccc4c3)no2)C1", "note": "[Example 53, (4-Fluoro-phenyl)-[(S)-3-(3-naphthalen-2-yl-[1,2,4]oxadiazol-5-yl)-piperidin-1-yl]-methanone]", "melting point": "142 to 143"}
{"smiles": "O=C(c1ccc(F)c(F)c1)N1CCC[C@H](c2nc(-c3ccccc3F)no2)C1", "note": "[Example 59]", "melting point": "115 to 119"}
{"smiles": "O=C(c1ccc(F)cc1)N1CCOC(c2nc(-c3ccc(F)cc3)no2)C1", "note": "(stereo not shown) [Example 60, (4-Fluoro-phenyl)-{2-[3-(4-fluoro-phenyl)-[1,2,4]oxadiazol-5-yl]-morpholin-4-yl}-methanone]", "melting point": "116 to 117"}
{"smiles": "O=C(/C=C/c1ccc(F)cc1)N1CCC[C@H](c2nc(-c3ccc(F)cc3)no2)C1", "note": "[Example 64, (E)-3-(4-Fluoro-phenyl)-1-{(S)-3-[3-(4-fluoro-phenyl)-[1,2,4]oxadiazol-5-yl]-piperidin-1-yl}-propenone]", "melting point": "137 to 139"}
{"smiles": "O=C(c1ccc(F)cc1)N1CCC[C@H](c2nc(-c3ccccc3)no2)C1", "note": "[Example 69, (4-Fluoro-phenyl)-[(S)-3-(3-phenyl-[1,2,4]oxadiazol-5-yl)-piperidin-1-yl]-methanone]", "melting point": "116 to 118"}
{"smiles": "O=C(c1ccc(F)c(F)c1)N1CCC[C@H](c2nc(-c3ccccc3)no2)C1", "note": "[Example 70, (3,4-Difluoro-phenyl)-[(S)-3-(3-phenyl-[1,2,4]oxadiazol-5-yl)-piperidin-1-yl]-methanone]", "melting point": "149 to 151"}
{"smiles": "O=C(c1ccc(F)cc1)N1CCC[C@H](c2nc(-c3ccc([N+](=O)[O-])cc3)no2)C1", "note": "[Example 71, (4-Fluoro-phenyl)-{(S)-3-[3-(4-nitro-phenyl)-[1,2,4]oxadiazol-5-yl]-piperidin-1-yl}-methanone]", "melting point": "162 to 164"}
{"smiles": "O=C(c1ccc(F)c(F)c1)N1CCC[C@H](c2nc(-c3ccc([N+](=O)[O-])cc3)no2)C1", "note": "[Example 72, (3,4-Difluoro-phenyl)-{(S)-3-[3-(4-nitro-phenyl)-[1,2,4]oxadiazol-5-yl]-piperidin-1-yl}-methanone]", "melting point": "138 to 140"}
